Assay results published in US8722088B2, “Pharmaceutical compositions and methods for the treatment of prostate cancer” (Ferring International Center S.A., priority 2009, dated 2014).
Where a SMILES comes first, the peptide text is derived from it. [ ]: non-standard residue; d: D form. The star is where a group is joined. dPhe(4-NHCONH2) = NC(=O)Nc1ccc(C[C@@H](N)C(=O)O)cc1; Dihydroorotyl(S) = O=C1C[C@@H](C(=O)*)NC(=O)N1; dPhe(4-Cl) = N[C@H](Cc1ccc(Cl)cc1)C(=O)O; Phe(4-NH2) = Nc1ccc(C[C@H](N)C(=O)O)cc1; d2Nal = N[C@H](Cc1ccc2ccccc2c1)C(=O)O; Lys(iPr) = CC(C)NCCCC[C@H](N)C(=O)O; d3Pal = N[C@H](Cc1cccnc1)C(=O)O

System: serum testosterone
Assay: Clinical trial CS18 (Phase 2, three-month dosing regimen): serum testosterone ≦0.5 ng/mL
Format: in vivo, human
Conditions: for cumulative probability of testosterone ≦0.5 ng/mL, Kaplan-Meier estimate / number of patients with testosterone > 0.5 ng/mL: Day 28 to Day 364; for cumulative probability of testosterone ≦0.5 ng/mL, Kaplan-Meier estimate / proportion of patients with testosterone ≦0.5 ng/mL: ITT
Procedure: The present study included a starting degarelix dose of 240 mg (with a concentration of 40 mg/mL of solvent), followed by maintenance doses of degarelix: i.e., 360 mg (with a concentration of 60 mg/mL of solvent) or 480 mg (with a concentration of 60 mg/mL of solvent), the latter administered at Months 1, 4, 7, and 10.
The study was open labeled and patients received a starting dose of 240 mg (with a concentration of 40 mg/mL of solvent) at Month 0 followed by one of two degarelix maintenance dose treatment regimens: 360 mg (with a concentration of 60 mg/mL of solvent) at Months 1, 4, 7, and 10; or 480 mg (with a concentration of 60 mg/mL of solvent) at Months 1, 4, 7, and 10.
The starting dose was administered subcutaneously as two injections of 120 mg (with a concentration of 40 mg/ml of solvent, given as 2×3 mL injections). After 28 days a maintenance dose of 360 mg (with a concentration of 60 mg/mL, given as 2×3 mL injections) or 480 mg (with a concentration of 60 mg/mL, given as 2×4 mL injections) was administered, also in two injections (each of 240 mg). Thereafter, with three monthly intervals, maintenance doses were given, again in the form of two injections. […] At each visit, serum testosterone, prostate specific androgen (PSA), and plasma concentration of degarelix were measured by techniques well known in the art.

## CC(=O)N[C@H](Cc1ccc2ccccc2c1)C(=O)N[C@H](Cc1ccc(Cl)cc1)C(=O)N[C@H](Cc1cccnc1)C(=O)N[C@@H](CO)C(=O)N[C@@H](Cc1ccc(NC(=O)[C@@H]2CC(=O)NC(=O)N2)cc1)C(=O)N[C@H](Cc1ccc(NC(N)=O)cc1)C(=O)N[C@@H](CC(C)C)C(=O)N[C@@H](CCCCNC(C)C)C(=O)N1CCC[C@H]1C(=O)N[C@H](C)C(N)=O [Degarelix, D-Alaninamide, N-acetyl-3-(2-naphthalenyl)-D-alanyl-4-chloro-D-phenylalanyl-3-(3-pyridinyl)-D-alanyl-L-seryl-4-[[[(4S)-hexahydro-2,6-dioxo-4-pyrimidinyl]carbonyl]amino]-L-phenylalanyl-4-[(aminocarbonyl)amino]-D-phenylalanyl-L leucyl-N6-(1-methylethyl)-L-lysyl-L-prolyl] (Ac-[d2Nal][dPhe(4-Cl)][d3Pal]S[Phe(4-NH2)](Dihydroorotyl(S))[dPhe(4-NHCONH2)]L[Lys(iPr)]P[dA]-NH2)
360 mg (60 mg/mL) maintenance Months 1,4,7,10 after 240 mg start
  cumulative probability of testosterone ≦0.5 ng/mL, Kaplan-Meier estimate: 89.0%
360 mg (60 mg/mL) maintenance Months 1,4,7,10 after 240 mg start, listed as degarelix
  cumulative probability of testosterone ≦0.5 ng/mL, Kaplan-Meier estimate: 89.0%
360 mg (60 mg/mL) maintenance dose
  patients with sustained testosterone suppression over the course of the observed time period: at least 90%
480 mg (60 mg/mL) maintenance Months 1,4,7,10 after 240 mg start
  cumulative probability of testosterone ≦0.5 ng/mL, Kaplan-Meier estimate: 93.3%
480 mg (60 mg/mL) maintenance Months 1,4,7,10 after 240 mg start, listed as degarelix
  cumulative probability of testosterone ≦0.5 ng/mL, Kaplan-Meier estimate: 93.3%
480 mg (60 mg/mL) maintenance dose
  patients with sustained testosterone suppression over the course of the observed time period: > 95%
360/60 mg
  coverage probability (confidence of true suppression rate being greater than 90%): 39.7%
360/60 mg, Day 28
  proportion of patients with testosterone ≦0.5 ng/mL: 98.5%
360/60 mg, Day 56
  proportion of patients with testosterone ≦0.5 ng/mL: 100%
360/60 mg, Day 84
  proportion of patients with testosterone ≦0.5 ng/mL: 100%
360/60 mg, Day 112
  proportion of patients with testosterone ≦0.5 ng/mL: 96.8%
360/60 mg, Day 140
  proportion of patients with testosterone ≦0.5 ng/mL: 100%
360/60 mg, Day 168
  proportion of patients with testosterone ≦0.5 ng/mL: 98.4%
360/60 mg, Day 196 (before re-dosing at Month 7)
  proportion of patients with testosterone ≦0.5 ng/mL: 90.6%
360/60 mg, Day 196 (before re-dosing at Month 7), listed as degarelix
  proportion of patients with testosterone ≦0.5 ng/mL: 90.6%
360/60 mg, Day 224
  proportion of patients with testosterone ≦0.5 ng/mL: 98.4%
360/60 mg, Day 252
  proportion of patients with testosterone ≦0.5 ng/mL: 98.4%
360/60 mg, Day 280 (before re-dosing at Month 10)
  proportion of patients with testosterone ≦0.5 ng/mL: 93.3%
360/60 mg, Day 280 (before re-dosing at Month 10), listed as degarelix
  proportion of patients with testosterone ≦0.5 ng/mL: 93.3%
360/60 mg, Day 308
  proportion of patients with testosterone ≦0.5 ng/mL: 100%
360/60 mg, Day 336
  proportion of patients with testosterone ≦0.5 ng/mL: 96.7%
360/60 mg, Day 364
  proportion of patients with testosterone ≦0.5 ng/mL: 95.0%
360/60 mg, N=67
  number of patients with testosterone > 0.5 ng/mL: 7
360/60 mg, listed as degarelix
  coverage probability (confidence of true suppression rate being greater than 90%): 39.7%
480/60 mg
  coverage probability (confidence of true suppression rate being greater than 90%): 79.9%
480/60 mg, Day 28
  proportion of patients with testosterone ≦0.5 ng/mL: 98.4%
480/60 mg, Day 56
  proportion of patients with testosterone ≦0.5 ng/mL: 98.4%
480/60 mg, Day 84
  proportion of patients with testosterone ≦0.5 ng/mL: 98.4%
480/60 mg, Day 112
  proportion of patients with testosterone ≦0.5 ng/mL: 96.7%
480/60 mg, Day 140
  proportion of patients with testosterone ≦0.5 ng/mL: 98.3%
480/60 mg, Day 168
  proportion of patients with testosterone ≦0.5 ng/mL: 98.3%
480/60 mg, Day 196
  proportion of patients with testosterone ≦0.5 ng/mL: 98.3%
480/60 mg, Day 224
  proportion of patients with testosterone ≦0.5 ng/mL: 98.3%
480/60 mg, Day 252
  proportion of patients with testosterone ≦0.5 ng/mL: 100%
480/60 mg, Day 280
  proportion of patients with testosterone ≦0.5 ng/mL: 98.2%
480/60 mg, Day 308
  proportion of patients with testosterone ≦0.5 ng/mL: 100%
480/60 mg, Day 336
  proportion of patients with testosterone ≦0.5 ng/mL: 100%
480/60 mg, Day 364
  proportion of patients with testosterone ≦0.5 ng/mL: 96.3%
480/60 mg, N=66
  number of patients with testosterone > 0.5 ng/mL: 4
480/60 mg, listed as degarelix
  coverage probability (confidence of true suppression rate being greater than 90%): 79.9%
Total (480 mg and 360 mg arms)
  cumulative probability of testosterone ≦0.5 ng/mL, Kaplan-Meier estimate: 92.8%
Total (both arms, after 240 mg starting dose), Day 28
  proportion of patients with testosterone ≦0.5 ng/mL: 98.4%
Total (both arms, after 240 mg starting dose), Day 28, listed as degarelix
  proportion of patients with testosterone ≦0.5 ng/mL: 98%
Total, N=133
  number of patients with testosterone > 0.5 ng/mL: 11
